# Data: ChEMBL document CHEMBL4834409 (J Med Chem, 2021)
# The source made the active and inactive calls. No cut-off for these calls is given here.
# How the values were obtained:
# [1] = target: T1, Melatonin receptor type 1A (Homo sapiens, UniProt P48039); test: Displacement of 2-[125l]-lodomelatonin from human MT1 expressed in CHO cell membrane incubated for 150 mins by radioligand binding assay; type: cell membranes
# [2] = target: T2, Melatonin receptor type 1B (Homo sapiens, UniProt P49286); test: Displacement of 2-[125l]-lodomelatonin from human MT2 expressed in CHO cell membrane incubated for 150 mins by radioligand binding assay; type: cell membranes
# T2 sequence (P49286 whole entry): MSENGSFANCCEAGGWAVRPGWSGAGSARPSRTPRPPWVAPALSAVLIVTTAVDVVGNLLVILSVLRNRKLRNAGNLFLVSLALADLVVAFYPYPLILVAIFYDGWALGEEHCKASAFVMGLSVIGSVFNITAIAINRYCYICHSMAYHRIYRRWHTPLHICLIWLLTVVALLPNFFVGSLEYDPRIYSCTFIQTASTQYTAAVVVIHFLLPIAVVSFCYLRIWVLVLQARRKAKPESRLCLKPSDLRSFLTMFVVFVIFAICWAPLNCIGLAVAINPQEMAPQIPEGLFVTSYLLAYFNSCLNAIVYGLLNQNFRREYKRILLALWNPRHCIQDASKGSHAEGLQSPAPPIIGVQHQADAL
# [3] = Oral bioavailability in Sprague-Dawley rat at 1 mg/kg administered as casette dosing by LC/MS/MS analysis; type: ADME, organism-based; conditions: in vivo
# [4] = Clearance in human hepatic microsomes at 1 umol/L incubated for 20 mins in presence of NADPH generating system by HPLC-UV analysis; type: ADME, Microsome; conditions: liver microsomes, dose 1 µmol/L, read-out: CLH
# [5] = Clearance in rat hepatic microsomes at 1 umol/L incubated for 20 mins in presence of NADPH generating system by HPLC-UV analysis; type: ADME, Microsome; conditions: liver microsomes, dose 1 µmol/L, read-out: CLH
# [6] = target: T3, Melatonin receptor type 1B (Homo sapiens) (UniProt P49286); test: Displacement of 2-[125l]-lodomelatonin from human MT2 expressed in CHO cell membrane at 100 nM incubated for 150 mins by radioligand binding assay relative to control; type: cell membranes
# T3 sequence (whole entry): T2 sequence (P49286 whole entry)
# [7] = Ratio of drug concentration in brain to plasma in Sprague-Dawley rat at 1 mg/kg, po after 60 mins by LC/MS/MS analysis; type: ADME, organism-based; conditions: read-out: BPR
# [8] = Oral bioavailability in Sprague-Dawley rat at 1 mg/kg by LC/MS/MS analysis; type: ADME, organism-based; conditions: in vivo
# [9] = target: T2, Melatonin receptor type 1B; test: Binding affinity to human MT2 expressed in CHO cells; type: cell-based
# [10] = Drug concentration in Sprague-Dawley rat brain at 1 mg/kg, po after 60 mins by LC/MS/MS analysis; type: ADME, organism-based; conditions: read-out: Ct
# [11] = target: T1, Melatonin receptor type 1A; test: Binding affinity to human MT1 expressed in CHO cells; type: cell-based
# [12] = Drug concentration in Sprague-Dawley rat plasma at 1 mg/kg, po after 60 mins by LC/MS/MS analysis; type: ADME, organism-based
# [13] = Drug concentration in Sprague-Dawley rat plasma at 0.1 mg/kg, po after 60 mins by LC/MS/MS analysis; type: ADME, organism-based
# [14] = Drug concentration in Sprague-Dawley rat brain at 0.1 mg/kg, po after 60 mins by LC/MS/MS analysis; type: ADME, organism-based; conditions: read-out: Ct
# [15] = target: T1, Melatonin receptor type 1A; test: Agonist activity at human MT1 expressed in CHO-K1 cells assessed as inhibition of forskolin-induced cAMP accumulation incubated for 30 mins by AlphaScreen assay; type: functional, cell-based
# [16] = target: T2, Melatonin receptor type 1B; test: Agonist activity at human MT2 expressed in CHO-K1 cells assessed as inhibition of forskolin-induced cAMP accumulation incubated for 30 mins by AlphaScreen assay; type: functional, cell-based
# [17] = Ratio of drug concentration in brain to plasma in Sprague-Dawley rat at 0.1 mg/kg, po after 60 mins by LC/MS/MS analysis; type: ADME, organism-based; conditions: read-out: BPR
# Felis catus = test: Hypnotic activity in cats assessed as increase in total sleep time at 10 mg/kg, po after 8 hrs by EEG analysis; type: functional, organism-based
# [18] = target: T1, Melatonin receptor type 1A; test: Displacement of 2-[125l]-lodomelatonin from human MT1 expressed in CHO cell membrane at 100 nM incubated for 150 mins by radioligand binding assay relative to control; type: cell membranes
# T1 sequence (P48039 whole entry): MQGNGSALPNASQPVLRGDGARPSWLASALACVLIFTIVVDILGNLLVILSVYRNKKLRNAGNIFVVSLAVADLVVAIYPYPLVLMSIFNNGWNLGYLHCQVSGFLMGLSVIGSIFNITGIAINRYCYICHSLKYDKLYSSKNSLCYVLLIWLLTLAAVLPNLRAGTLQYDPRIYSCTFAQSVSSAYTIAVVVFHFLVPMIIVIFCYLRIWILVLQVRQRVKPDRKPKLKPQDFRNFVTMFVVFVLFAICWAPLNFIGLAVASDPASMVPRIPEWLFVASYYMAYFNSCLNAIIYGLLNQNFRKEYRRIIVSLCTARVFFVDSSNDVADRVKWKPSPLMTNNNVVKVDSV
smiles,measurement,setting,value
CC(=O)NCCC1CCc2ccc3nc(-c4ccccc4)oc3c21 (centres undefined),Ki,[1],1.3 nM
same,Ki,[2],0.23 nM
CCC(=O)NCCC1CCc2ccc3nc(C)sc3c21 (centres undefined),bioavailability,[3],3.2%
same,microsomal CLint at 1 µM,[4],41 µL/min/mg
same,Ki,[1],0.027 nM
same,Ki,[2],0.058 nM
same,microsomal CLint at 1 µM,[5],379 µL/min/mg
CC(=O)NCCC1CCc2ccn3nc(C)cc3c21 (centres undefined),bioavailability,[3],14.3%
same,microsomal CLint at 1 µM,[4],14 µL/min/mg
same,Ki,[1],0.2 nM
same,Ki,[2],1.4 nM
same,microsomal CLint at 1 µM,[5],42 µL/min/mg
CC(=O)NCCC1CCc2ccc3ncoc3c21 (centres undefined),Ki,[1],0.45 nM
same,Ki,[2],0.073 nM
CC(=O)NCC[C@H]1CCc2ccc3nc(C)oc3c21,Ki,[1],23 nM
same,Ki,[2],6.1 nM
CC(=O)NCCC1CCc2ccn3nc(C)c(C)c3c21 (centres undefined),inhibition,[6],< 50%
same,Ki,[1],9.3 nM
CC(=O)NCCC1CCc2ccc3nc(CO)oc3c21 (centres undefined),Ki,[1],1.2 nM
same,Ki,[2],1.1 nM
CCC(=O)NCCC1CCc2ccn3nc(C)cc3c21 (centres undefined),microsomal CLint at 1 µM,[4],20 µL/min/mg
same,Ki,[1],0.17 nM
same,Ki,[2],0.95 nM
same,microsomal CLint at 1 µM,[5],84 µL/min/mg
CC(=O)NCCC1CCc2ccc3nc(C)sc3c21 (centres undefined),bioavailability,[3],4.8%
same,microsomal CLint at 1 µM,[4],45 µL/min/mg
same,Ki,[1],0.037 nM
same,Ki,[2],0.086 nM
same,microsomal CLint at 1 µM,[5],188 µL/min/mg
CCC(=O)NCC[C@@H]1CCc2ccc3c(c21)CCO3 [RAMELTEON],microsomal CLint at 1 µM,[4],51 µL/min/mg
same,Kp at 1 h,[7],1.1
same,bioavailability,[8],8.5%
same,Ki,[9],0.112 nM
same,concentration at 1 h,[10],17 ng/g
same,Ki,[11],0.014 nM
same,concentration at 1 h,[12],15 ng/mL
same,microsomal CLint at 1 µM,[5],126 µL/min/mg
CC(=O)NCCC1CCc2ccc3nc(C)oc3c21 (racemic),bioavailability,[3],18.5%
same,Ki,[1],0.067 nM
same,Ki,[2],0.13 nM
same,microsomal CLint at 1 µM,[5],34 µL/min/mg
CC(=O)NCC[C@@H]1CCc2ccc3nc(C)oc3c21,concentration at 1 h,[13],2.9 ng/mL
same,concentration at 1 h,[14],1.4 ng/g
same,EC50,[15],0.015 nM
same,EC50,[16],0.51 nM
same,Ki,[1],0.031 nM
same,Kp at 1 h,[17],0.48
same,Activity,Felis catus,Active
same,Ki,[2],0.07 nM
CCC(=O)NCCC1CCc2ccc3nn(C)cc3c21 (centres undefined),bioavailability,[3],13.7%
same,microsomal CLint at 1 µM,[4],23 µL/min/mg
same,Ki,[1],0.3 nM
same,Ki,[2],0.35 nM
same,microsomal CLint at 1 µM,[5],79 µL/min/mg
COc1nc2ccc3c(c2o1)C(CCNC(C)=O)CC3 (centres undefined),Ki,[1],0.45 nM
same,Ki,[2],0.15 nM
CC(=O)NCCC1CCc2ccc3nn(C)cc3c21 (centres undefined),bioavailability,[3],20.9%
same,microsomal CLint at 1 µM,[4],5 µL/min/mg
same,Ki,[1],0.35 nM
same,Ki,[2],0.75 nM
same,microsomal CLint at 1 µM,[5],44 µL/min/mg
CC(=O)NCCC1CCc2ccc3nc(Cc4ccccc4)oc3c21 (centres undefined),Ki,[1],4.4 nM
same,Ki,[2],0.12 nM
CCOC(=O)c1c(C)nn2ccc3c(c12)C(CCNC(C)=O)CC3 (centres undefined),inhibition,[6],< 50%
same,inhibition,[18],< 50%
CC(=O)NCCC1CCc2ccc3nc(C4CC4)oc3c21 (centres undefined),Ki,[1],0.39 nM
same,Ki,[2],0.15 nM
CCC(=O)NCCC1CCc2ccc3nc(C)oc3c21 (centres undefined),bioavailability,[3],6.8%
same,microsomal CLint at 1 µM,[4],29 µL/min/mg
same,Ki,[1],0.067 nM
same,Ki,[2],0.088 nM
same,microsomal CLint at 1 µM,[5],96 µL/min/mg
CCc1nc2ccc3c(c2o1)C(CCNC(C)=O)CC3 (centres undefined),Ki,[1],0.22 nM
same,Ki,[2],0.16 nM
